Here are results for 1 compound from ChEMBL document CHEMBL4765237, “Structural optimization and structure-activity relationship studies of N-phenyl-7,8-dihydro-6H-pyrimido[5,4-b][1,4]oxazin-4-amine derivatives as a new class of inhibitors of RET and its drug resistance mutants” (Eur J Med Chem, 2018).

Each structure is given as a SMILES string. A value given as a limit tells only on which side of the number the result lay.

The nature of data set [1]: AUC (0 to t) in Sprague-Dawley rat at 10 mg/kg, po measured upto 24 hrs by LC-MS/MS analysis. Type of data set: ADME, organism-based. Set-up: route oral, dose 10 mg/kg, time <=24. The following applies: in vivo.
For data set [2], the system named is NCI-H1975. Put plainly: Growth inhibition of human NCI-H1975 cells incubated for 3 days by MTT assay. It is filed as functional. To be noted: NCI-H1975, 72 h, time 3 day.
For data set [3], the system named is BGC-823. Put plainly: Growth inhibition of human BGC-823 cells incubated for 3 days by MTT assay. Type of data set: functional. The following applies: BGC-823, 72 h, time 3 day. A general note: Tetrazolium dyes change colour on reduction, which living cells bring about.
Data set [4] relates to SK-MEL-1. Put plainly: Growth inhibition of human SK-MEL-1 cells incubated for 3 days by MTT assay. It is filed as functional. The following applies: SK-MEL-1, 72 h, time 3 day.
For data set [5], the system named is MGC-803. Put plainly: Growth inhibition of human MGC-803 cells incubated for 3 days by MTT assay. It is filed as functional. The following applies: MGC-803, 72 h, time 3 day.
Data set [6] can be described thus: Growth inhibition of […] NIH3T3 cells harboring RET C634Y mutant incubated for 3 days by MTT assay. Type of data set: functional. To be noted: NIH3T3, 72 h; time 3 day.
The subject of data set [7] is Ramos. Put plainly: Growth inhibition of human Ramos cells incubated for 3 days by MTT assay. Type of data set: functional. To be noted: 72 h, time 3 day.
Data set [8] addresses Ephrin type-A receptor 7 (Homo sapiens, UniProt Q15375). Put plainly: Inhibition of recombinant human EphA7 (613 to 909 residues) using KTFCGTPEYLAPEVRREPRILSEEEQEMFRDFDYIADWC as substrate incubated for 40 mins in presence of [gamma-33ATP] by scintillation counting based radiometry assay.
The target in data set [9] is Ephrin type-B receptor 1 (Homo sapiens, UniProt P54762). Put plainly: Inhibition of recombinant human EphB1 (564 to end residues) using KVEKIGEGTYGVVYK as substrate incubated for 40 mins in presence of [gamma-33ATP] by scintillation counting based radiometry assay.
The target in data set [10] is Vascular endothelial growth factor receptor 1 (Homo sapiens, UniProt P17948).
Data set [11] deals with Interleukin-1 receptor-associated kinase 1 (Homo sapiens, UniProt P51617). Put plainly: Inhibition of human IRAK1 (194 to end residues) using myelin basic protein as substrate after 40 mins by [gamma-33ATP] radiometric assay.
For data set [12], the target named is Tyrosine-protein kinase Mer (Homo sapiens, UniProt Q12866). Put plainly: Inhibition of recombinant human MER (557 to 882 residues) using KKLNRTLSFAEPG as substrate incubated for 40 mins in presence of [gamma-33ATP by scintillation counting based radiometry assay.
Data set [13] has as its target Mitogen-activated protein kinase kinase kinase kinase 5 (Homo sapiens, UniProt Q9Y4K4). Put plainly: Inhibition of recombinant human MAP4K5 using myelin basic protein as substrate incubated for 40 mins in presence of [gamma-33ATP by scintillation counting based radiometry assay.
The target of data set [14] is High affinity nerve growth factor receptor (Homo sapiens, UniProt P04629).
Data set [15] addresses Tyrosine-protein kinase receptor UFO (Homo sapiens, UniProt P30530). Put plainly: Inhibition of recombinant human Axl (473 to end residues) using KKSRGDYMTMQIG as substrate incubated for 40 mins in presence of [gamma-33ATP] by scintillation counting based radiometry assay.
For data set [16], the target named is Ephrin type-A receptor 3 (Homo sapiens, UniProt P29320). Put plainly: Inhibition of recombinant human EphA3 (578 to end residues) using poly(Glu, Tyr) 4:1 as substrate incubated for 40 mins in presence of [gamma-33ATP] by scintillation counting based radiometry assay.
Data set [17] has as its target Macrophage colony-stimulating factor 1 receptor (Homo sapiens, UniProt P07333).
The target in data set [18] is Serine/threonine-protein kinase Nek9 (Homo sapiens, UniProt Q8TD19). Put plainly: Inhibition of recombinant human NEK9 (1 to 324 residues) using myelin basic protein as substrate measured after 40 mins in presence of [gamma33P]ATP by scintillation counting based radiometry assay.
Data set [19] concerns the target Macrophage-stimulating protein receptor (Homo sapiens, UniProt Q04912). Put plainly: Inhibition of recombinant human Ron (983 to end residues) using GGMEDIYFEFMGGKKK as substrate incubated for 40 mins in presence of [gamma33P]ATP by scintillation counting based radiometry assay.
Data set [20] has as its target Proto-oncogene tyrosine-protein kinase receptor Ret (Homo sapiens, UniProt P07949).
Data set [21] relates to NIH3T3. To be noted: Homo sapiens, dose 10-30 mg/kg, time 18.0 day.

Sequence of Vascular endothelial growth factor receptor 1 (P17948 whole entry): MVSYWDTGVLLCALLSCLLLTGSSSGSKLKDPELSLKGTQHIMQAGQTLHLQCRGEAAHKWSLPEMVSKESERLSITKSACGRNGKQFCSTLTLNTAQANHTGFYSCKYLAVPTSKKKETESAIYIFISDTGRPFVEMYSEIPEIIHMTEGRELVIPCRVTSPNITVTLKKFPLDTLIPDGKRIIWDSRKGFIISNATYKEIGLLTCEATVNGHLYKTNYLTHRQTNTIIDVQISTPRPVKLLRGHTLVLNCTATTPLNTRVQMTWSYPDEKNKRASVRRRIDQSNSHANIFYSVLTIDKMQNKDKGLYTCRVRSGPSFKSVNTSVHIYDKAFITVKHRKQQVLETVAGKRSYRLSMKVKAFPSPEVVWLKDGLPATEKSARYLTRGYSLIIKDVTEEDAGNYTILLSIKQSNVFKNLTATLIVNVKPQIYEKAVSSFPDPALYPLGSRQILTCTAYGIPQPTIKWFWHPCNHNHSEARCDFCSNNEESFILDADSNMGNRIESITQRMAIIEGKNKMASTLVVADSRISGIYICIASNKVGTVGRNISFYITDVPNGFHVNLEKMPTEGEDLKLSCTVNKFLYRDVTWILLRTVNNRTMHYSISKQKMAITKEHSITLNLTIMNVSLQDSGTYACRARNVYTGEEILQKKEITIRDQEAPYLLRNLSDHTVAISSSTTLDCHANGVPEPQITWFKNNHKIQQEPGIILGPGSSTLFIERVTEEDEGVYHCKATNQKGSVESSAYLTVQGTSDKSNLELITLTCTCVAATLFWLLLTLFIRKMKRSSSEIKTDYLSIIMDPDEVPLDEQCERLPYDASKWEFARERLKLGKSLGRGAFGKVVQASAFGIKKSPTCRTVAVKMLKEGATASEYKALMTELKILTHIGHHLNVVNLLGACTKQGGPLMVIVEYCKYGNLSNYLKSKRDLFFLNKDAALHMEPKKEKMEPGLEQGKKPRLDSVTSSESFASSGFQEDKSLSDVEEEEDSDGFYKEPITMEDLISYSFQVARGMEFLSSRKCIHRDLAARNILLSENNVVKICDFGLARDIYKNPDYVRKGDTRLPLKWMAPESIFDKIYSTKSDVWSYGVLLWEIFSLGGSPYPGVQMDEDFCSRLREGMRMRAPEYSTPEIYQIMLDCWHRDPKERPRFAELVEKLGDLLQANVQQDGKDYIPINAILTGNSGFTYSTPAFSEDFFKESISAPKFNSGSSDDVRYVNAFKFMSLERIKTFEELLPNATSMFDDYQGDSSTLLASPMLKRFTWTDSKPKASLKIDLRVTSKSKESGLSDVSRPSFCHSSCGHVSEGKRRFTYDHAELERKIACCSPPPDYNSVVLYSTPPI
Sequence of Ephrin type-A receptor 3 (P29320 whole entry): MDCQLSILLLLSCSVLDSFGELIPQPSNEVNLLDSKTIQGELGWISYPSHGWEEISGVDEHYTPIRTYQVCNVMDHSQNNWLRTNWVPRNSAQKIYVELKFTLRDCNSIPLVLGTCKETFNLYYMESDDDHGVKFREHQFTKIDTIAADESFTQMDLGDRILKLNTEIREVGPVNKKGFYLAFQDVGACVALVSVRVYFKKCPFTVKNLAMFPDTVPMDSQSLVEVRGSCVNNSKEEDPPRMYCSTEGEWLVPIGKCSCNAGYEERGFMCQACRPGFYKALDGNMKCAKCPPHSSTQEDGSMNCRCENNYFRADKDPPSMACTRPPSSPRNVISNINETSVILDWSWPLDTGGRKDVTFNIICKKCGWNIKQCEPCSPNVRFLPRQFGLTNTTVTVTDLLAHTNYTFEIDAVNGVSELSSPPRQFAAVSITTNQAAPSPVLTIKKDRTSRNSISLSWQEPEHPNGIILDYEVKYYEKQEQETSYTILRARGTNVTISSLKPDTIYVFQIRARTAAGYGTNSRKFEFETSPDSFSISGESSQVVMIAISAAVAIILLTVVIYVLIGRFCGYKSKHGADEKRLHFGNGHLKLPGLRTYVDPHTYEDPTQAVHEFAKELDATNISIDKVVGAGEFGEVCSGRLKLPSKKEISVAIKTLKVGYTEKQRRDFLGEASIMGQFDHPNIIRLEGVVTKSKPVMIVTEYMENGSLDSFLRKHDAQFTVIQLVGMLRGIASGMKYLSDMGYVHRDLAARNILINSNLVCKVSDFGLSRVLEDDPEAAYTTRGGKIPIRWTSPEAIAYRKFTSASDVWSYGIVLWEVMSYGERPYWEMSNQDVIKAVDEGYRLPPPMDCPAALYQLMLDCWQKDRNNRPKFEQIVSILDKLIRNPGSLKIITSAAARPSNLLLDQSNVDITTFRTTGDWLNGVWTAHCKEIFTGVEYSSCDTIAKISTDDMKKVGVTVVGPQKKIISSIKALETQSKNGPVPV
Sequence of Ephrin type-A receptor 7 (Q15375 whole entry, the tested form may be a part): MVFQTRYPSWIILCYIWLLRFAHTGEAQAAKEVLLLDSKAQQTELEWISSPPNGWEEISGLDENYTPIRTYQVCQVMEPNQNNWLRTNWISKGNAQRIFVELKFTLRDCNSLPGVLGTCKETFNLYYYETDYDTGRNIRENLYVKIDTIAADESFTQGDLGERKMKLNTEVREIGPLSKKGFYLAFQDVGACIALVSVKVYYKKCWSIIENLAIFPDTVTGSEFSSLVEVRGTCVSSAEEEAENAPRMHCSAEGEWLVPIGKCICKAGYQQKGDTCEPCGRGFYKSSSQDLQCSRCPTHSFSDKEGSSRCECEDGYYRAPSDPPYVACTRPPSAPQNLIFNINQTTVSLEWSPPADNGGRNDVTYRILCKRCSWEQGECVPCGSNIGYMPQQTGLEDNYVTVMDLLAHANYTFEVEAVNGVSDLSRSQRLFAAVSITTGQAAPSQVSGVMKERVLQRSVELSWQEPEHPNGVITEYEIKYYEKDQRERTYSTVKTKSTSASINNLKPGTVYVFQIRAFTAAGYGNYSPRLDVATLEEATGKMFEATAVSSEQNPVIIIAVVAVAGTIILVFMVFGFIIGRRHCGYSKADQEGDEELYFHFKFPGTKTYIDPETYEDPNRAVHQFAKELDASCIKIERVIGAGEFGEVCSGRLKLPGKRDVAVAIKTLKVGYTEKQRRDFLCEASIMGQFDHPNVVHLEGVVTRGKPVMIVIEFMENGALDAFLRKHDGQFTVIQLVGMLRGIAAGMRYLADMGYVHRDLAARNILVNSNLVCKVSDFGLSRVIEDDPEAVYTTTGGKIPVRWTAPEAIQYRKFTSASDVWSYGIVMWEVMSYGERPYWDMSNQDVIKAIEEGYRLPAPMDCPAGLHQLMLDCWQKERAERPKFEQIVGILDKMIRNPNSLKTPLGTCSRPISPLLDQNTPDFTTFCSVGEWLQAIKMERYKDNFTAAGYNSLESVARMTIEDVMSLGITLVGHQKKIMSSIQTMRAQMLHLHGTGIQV
Sequence of Ephrin type-B receptor 1 (P54762 whole entry): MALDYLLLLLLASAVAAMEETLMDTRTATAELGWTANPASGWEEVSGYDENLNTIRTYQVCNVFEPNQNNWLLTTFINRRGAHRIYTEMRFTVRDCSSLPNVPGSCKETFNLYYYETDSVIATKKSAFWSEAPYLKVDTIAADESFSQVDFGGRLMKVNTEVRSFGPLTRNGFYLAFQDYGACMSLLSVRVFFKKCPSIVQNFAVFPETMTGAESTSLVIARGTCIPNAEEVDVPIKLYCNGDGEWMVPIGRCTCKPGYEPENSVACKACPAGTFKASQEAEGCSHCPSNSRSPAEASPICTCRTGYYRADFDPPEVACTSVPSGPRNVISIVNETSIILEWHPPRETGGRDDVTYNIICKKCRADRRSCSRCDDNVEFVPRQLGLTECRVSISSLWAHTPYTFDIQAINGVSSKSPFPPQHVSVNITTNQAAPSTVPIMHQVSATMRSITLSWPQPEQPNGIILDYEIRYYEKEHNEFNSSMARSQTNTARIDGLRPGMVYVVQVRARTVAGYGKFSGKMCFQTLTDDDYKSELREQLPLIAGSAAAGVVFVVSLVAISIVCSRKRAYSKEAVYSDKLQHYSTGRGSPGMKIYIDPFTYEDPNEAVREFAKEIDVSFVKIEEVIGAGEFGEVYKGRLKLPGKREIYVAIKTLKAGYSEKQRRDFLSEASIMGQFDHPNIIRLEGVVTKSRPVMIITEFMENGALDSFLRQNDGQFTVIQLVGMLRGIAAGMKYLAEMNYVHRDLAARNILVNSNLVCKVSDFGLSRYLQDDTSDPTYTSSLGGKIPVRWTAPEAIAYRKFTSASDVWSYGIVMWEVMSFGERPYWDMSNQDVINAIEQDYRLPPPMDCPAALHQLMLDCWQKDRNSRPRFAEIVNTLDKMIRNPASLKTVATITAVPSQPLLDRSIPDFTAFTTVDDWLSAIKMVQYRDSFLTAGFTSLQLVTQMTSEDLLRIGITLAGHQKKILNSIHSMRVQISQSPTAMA
Sequence of Interleukin-1 receptor-associated kinase 1 (P51617 whole entry, the tested form may be a part): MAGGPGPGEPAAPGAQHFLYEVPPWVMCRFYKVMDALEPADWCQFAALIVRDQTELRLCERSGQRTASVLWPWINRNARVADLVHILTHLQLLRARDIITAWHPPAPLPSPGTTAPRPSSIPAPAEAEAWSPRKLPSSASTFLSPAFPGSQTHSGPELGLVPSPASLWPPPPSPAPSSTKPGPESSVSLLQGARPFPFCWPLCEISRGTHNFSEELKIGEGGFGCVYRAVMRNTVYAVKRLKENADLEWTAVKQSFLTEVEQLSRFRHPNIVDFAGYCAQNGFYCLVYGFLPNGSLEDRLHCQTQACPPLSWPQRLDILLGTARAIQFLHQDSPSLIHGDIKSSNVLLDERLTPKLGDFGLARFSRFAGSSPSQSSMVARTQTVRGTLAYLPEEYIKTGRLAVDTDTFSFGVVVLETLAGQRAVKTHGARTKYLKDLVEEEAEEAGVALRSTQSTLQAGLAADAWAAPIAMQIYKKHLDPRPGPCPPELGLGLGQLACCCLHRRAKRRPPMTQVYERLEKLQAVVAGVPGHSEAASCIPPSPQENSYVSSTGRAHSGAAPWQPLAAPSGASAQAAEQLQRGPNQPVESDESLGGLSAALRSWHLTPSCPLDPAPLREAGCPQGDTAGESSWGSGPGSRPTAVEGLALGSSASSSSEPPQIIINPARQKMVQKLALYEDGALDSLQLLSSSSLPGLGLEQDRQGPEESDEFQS

For orientation: AUC(0-t) means the area under the concentration-time curve up to a stated or last time point. A low value points to less exposure. One may read the GI50 as the concentration giving 50% growth inhibition. As a reminder, the IC50 is the concentration needed to halve the response being measured. For `CC(C)(C)c1cc(NC(=O)Nc2ccc(Nc3ncnc4c3OCCCN4)cc2)no1`, the AUC(0-t) at 24 h in [1] was 441 µg·h/mL. For the same compound, the GI50 in [2] is > 10000 nM; in [3], 8470 nM; in data set [4] it was > 10000 nM; in [5], 4310 nM; in [6] it was 80 nM; in [7], > 10000 nM. Further, the IC50 in data set [8] was found to be 199 nM; in data set [9], 388 nM; in data set [10], 8 nM; in [11] it was 179 nM; in data set [12], 1490 nM; in data set [13] it was 711 nM. The IC50 stood at 71 nM in data set [14]; 708 nM in data set [15]; 552 nM in [16]; 9 nM in [17]; 1800 nM in data set [18]; 1260 nM in [19]. The IC50 in [20] worked out at 10 nM. In addition, the TGI result in [21] was “Dose-dependent effect”.
